Results from patent US20210283083A1, “USE OF TYROSINE HYDROXYLASE INHIBITORS FOR THE TREATMENT OF AORTIC ANEURYSM” (CONSEJO SUPERIOR DE INVESTIGACIONES CIENTÍFICAS (CSIC), priority 2018, published 2021).

Assays:
Format in all cases: in vivo
[1] = Systolic blood pressure by tail plethysmography in ApoE^−/− mice infused with Ang II; details: for systolic pressure: Ang II 1000 ng/kg/min + AMPT 100 mg/kg i.p. twice daily
Protocol: (§1) The studies were developed in male ApoE^−/− mice who were acclimatised to the facility for 1 week before the study. Animals were infused with Ang II (1000 ng/kg/min) by means of osmotic minipumps (model 1004, Alzet) implemented subcutaneously in the interscapular space of the mice after anesthesia with isoflurane. The procedure lasts approximately 15 minutes per animal. Immediately after surgery, antibiotics (penicillin, 22,000 u/Kg, i.m.) and analgesics (buprenorphine 0.05 mg/Kg, i.m.) were administered for preventing infections and limiting animal discomfort, which were kept on a heating pad until they woke up after the intervention and were carefully monitored during the post-surgery period. A group of the mice infused with Ang II received AMPT treatment (100 mg/kg, via i.p) administered twice daily from the day before implementing the Ang II pump and throughout the study (28 days). The control group consisted of ApoE^−/− mice infused with saline. Blood pressure was assessed weekly (at 0, 7, 14, 21 and 28 days) by means of the tail plethysmography method. The diameter of the aorta was also assessed weekly by means of abdominal ultrasound using ultrasound equipment (Vevo2100 Imaging systems, Visualsonics) with a 30 MHz transducer. To do this, the mice were anesthetised by means of 1.5% isofluorane inhalation and secured in a supine position on a heating platform. After shaving the precordial region, the transducer was applied to the abdominal wall to take measurements of the abdominal aorta. Those abdominal aortas with external diameters greater than or equal to 1.5 mm were considered aneurysmal. All measurements were carried out from the images captured by using the analysis software. After 4 weeks, the animals were euthanised by means of terminal intraperitoneal anesthesia with a mixture of medetomidine (1 mg/kg) and ketamine (75 mg/kg) in saline (final volume of 200 μl), aortas were immediately harvested, they were examined to determine the presence of aneurysms and were immediately frozen in nitrogen or fixed in paraformaldehyde for macroscopic characterisation or to be embedded in paraffin and processed for histochemical studies.

[2] = Systolic blood pressure in TgNR4A3^CML mice infused with Ang II; details: for systolic pressure: Ang II + AMPT
Protocol: as §1
The studies were developed in a similar way to that described in Example 3. In this case, the effect of the infusion of Ang II on the diameter of the aorta in control animals (C57BL/6J; WT) and in transgenic mice for NR4A3 (TgNR4A3^CML) was analysed. The transgenic mice infused with Ang II were divided into two groups, one of which received AMPT treatment from the day before implementation of the Ang II pumps, as described in Example 3, while the second group only received the vehicle in which this drug was administered (saline). The control groups consisted of transgenic mice and non-transgenic controls infused with saline.

[3] = system: TgNR4A3^CML mice infused with angiotensin II; test: Ang II-induced aortic aneurysm in TgNR4A3^CML mice (ultrasonography, histology)
Protocol: (A) Diameter of the aorta of non-transgenic mice (controls; C57BL/6J; WT) and transgenic mice for human NR4A3 (TgNR4A3^CML) infused with saline or angiotensin II (Ang II; 1000 ng/kg/min for 28 days). A group of TgNR4A3^CML mice infused with Ang II was treated with AMPT (100 mg/kg, via IP, administered twice a day from the day before implementing the Ang II pump). The diameter of the aorta was determined by means of ultrasonography. Values are expressed as mean±SEM (at least n=7). P<0.05: * vs. time 0 of the same experimental group; # vs. the same animal infused with saline at the same time; $ vs. TgNR4A3CML infused with Ang II and treated with AMPT. (B) Representative images obtained by means of ultrasonography of the cross-sectional view of the aorta of each of the experimental groups indicated in (A) after 4 weeks of treatment. (C) Representative photographs of the aortas of the mice in the 5 groups at the end of the study.
(§2) FIG. 6. […] Non-transgenic (controls; C57BL/6J; WT) and transgenic mice for human NR4A3 (TgNR4A3^CML) were infused with saline or angiotensin II (Ang II; 1000 ng/kg/min for 28 days). A group of transgenic animals infused with Ang II were treated or not with AMPT (100 mg/kg, via IP, administered twice a day from the day before implementing the Ang II pump). (A and B) Representative images of the histological analysis using Masson's trichrome (A) and orcein (B) staining in sections of the abdominal aorta of the indicated study groups. Arrows indicate elastic fibre ruptures. (C) Representative staining for MAC3 (macrophage marker) in sections of the abdominal aorta of each one of the experimental groups. Arrows indicate positive regions for MAC3. Bar: 100 microns.
as §1
The studies were developed in a similar way to that described in Example 3. […]

[4] = system: ApoE^−/− mice infused with angiotensin II; test: Ang II-induced aortic aneurysm in ApoE^−/− mice (ultrasonography, histology)
Protocol: FIG. 3. […] (A) Graph which represents the weekly evolution of the aortic diameter of ApoE^−/− mice infused with saline or angiotensin II (Ang II; 1000 ng/kg/min for 28 days) analysed by means of ultrasonography. Animals infused with Ang II were treated or not with AMPT (100 mg/kg via IP, administered twice a day from the day before implementing the Ang II pump). The values correspond to the mean±SEM (saline, n=9; Ang II, n=14; Ang II+AMPT, n=19). P<0.05: * vs. time 0 of the same experimental group; # vs. animals infused with saline at the same time; $ vs. animals infused with Ang II (not treated with AMPT) at the same time. (B) Representative images obtained by means of ultrasonography of the cross-sectional view of the aorta of each of the experimental groups indicated in (A) after 4 weeks of treatment. (C) Representative photographs of the aortas of the mice in the 3 study groups at the end of the study.
as §2, with “4.” for “6.”, “ApoE^−/−” for “Non-transgenic (controls; C57BL/6J; WT) and transgenic”, “mice” for “mice for human NR4A3 (TgNR4A3^CML)”, “Animals” for “A group of transgenic animals”
as §1

[5] = TgNR4A3^CML mice, Ang II, AMPT treatment
[6] = ApoE^−/− mice, Ang II, AMPT 100 mg/kg i.p. twice daily, 28 days

CC(N)(Cc1ccc(O)cc1)C(=O)O (stereo not drawn) [AMPT, alpha-methyl-p-tyrosine] showed a systolic pressure ([1]; day 0, mean ± SEM) of 100.55 mm Hg, a systolic pressure ([1]; day 7, mean ± SEM) of 133.99 mm Hg and a systolic pressure ([1]; day 14, mean ± SEM) of 136.36 mm Hg. The systolic pressure ([1]; day 21, mean ± SEM) was 143.34 mm Hg, the systolic pressure ([1]; day 28, mean ± SEM) was 154.46 mm Hg and the “effect of AMPT treatment on Ang II-increased blood pressure” value ([1]; Ang II infusion, AMPT 100 mg/kg i.p. twice daily, 28 days) was “not significantly altered”. It also gave a systolic pressure ([2]; day 0, mean ± SEM) of 100.19 mm Hg, a systolic pressure ([2]; day 7, mean ± SEM) of 111.79 mm Hg and a systolic pressure ([2]; day 14, mean ± SEM) of 129.03 mm Hg. The systolic pressure ([2]; day 21, mean ± SEM) was 146.44 mm Hg, the systolic pressure ([2]; day 28, mean ± SEM) was 158.59 mm Hg and the “effect of AMPT treatment on Ang II-increased blood pressure” value ([2]; Ang II infusion, AMPT 100 mg/kg i.p. twice daily) was “without significant differences”. The “development of aortic aneurysm” value ([3]; TgNR4A3^CML mice infused with Ang II 1000 ng/kg/min for 28 days, AMPT 100 mg/kg IP twice a day) was “inhibits the development of aortic aneurysm”, the “Ang II-induced increase in aortic diameter (ultrasonography)” value ([3]; TgNR4A3^CML mice, AMPT 100 mg/kg i.p. twice daily, after 21 and 28 days, values similar to WT mice infused with Ang II) was “significantly prevented this effect” and the “structural alterations and inflammatory infiltrate in the aorta” value ([3]; TgNR4A3^CML mice, Ang II 1000 ng/kg/min for 28 days, AMPT 100 mg/kg IP twice a day) was “limits structural alterations and inflammatory infiltrate”. For the same compound, the “destructuring and rupture of the elastic laminae (orcein staining)” value [3, 5] was “limited the destructuring and rupture of the elastic laminae”, the “vascular inflammatory infiltrate (MAC3 immunohistochemistry)” value [3, 5] was “reduced the important vascular inflammatory infiltrate” and the “vascular remodelling and collagen deposition (Masson's trichrome)” value [3, 5] was “attenuated the exacerbated vascular remodelling and collagen deposition”. The “development of aortic aneurysm” value ([4]; ApoE^−/− mice infused with Ang II 1000 ng/kg/min for 28 days, AMPT 100 mg/kg IP twice a day) was “inhibits the development of aortic aneurysm”, the “Ang II-induced increase in aortic diameter (ultrasonography)” value ([4]; ApoE^−/− mice, AMPT 100 mg/kg i.p. twice daily, significant after 14 days, accentuated until 28 days) was “reduced the increase in aortic diameter to values similar to those of control animals” and the “structural alterations and inflammatory infiltrate in the aorta” value ([4]; ApoE^−/− mice, Ang II 1000 ng/kg/min for 28 days, AMPT 100 mg/kg IP twice a day) was “limits structural alterations and inflammatory infiltrate”. The “disruption and rupture of elastic fibers (orcein staining)” value [4, 6] was “limited the disruption and rupture of elastic fibers”, the “macrophage (MAC3-positive cells) infiltrate in the vascular wall” value [4, 6] was “prevented the significant macrophage (MAC3-positive cells) infiltrate” and the “vascular remodelling / collagen deposition (Masson's trichrome)” value [4, 6] was “attenuated”.
